This is an account of results in patent US8124641B2, “Aminotetrahydroindazoloacetic acids” (Hoffmann-La Roche Inc., priority 2008, dated 2012).

Usually pIC50 stands for the IC50 on a negative log10 scale, so that one unit is a factor of ten. Low values mean a high IC50, high ones a low IC50.

Each structure is given as a SMILES string. pIC50: −log10 of the molar value.

This assay has as its target T1, human CRTH2 (Homo sapiens, UniProt Q9Y5Y4).
T1 construct: expressed in transfected cells
T1 sequence (Q9Y5Y4 1-395): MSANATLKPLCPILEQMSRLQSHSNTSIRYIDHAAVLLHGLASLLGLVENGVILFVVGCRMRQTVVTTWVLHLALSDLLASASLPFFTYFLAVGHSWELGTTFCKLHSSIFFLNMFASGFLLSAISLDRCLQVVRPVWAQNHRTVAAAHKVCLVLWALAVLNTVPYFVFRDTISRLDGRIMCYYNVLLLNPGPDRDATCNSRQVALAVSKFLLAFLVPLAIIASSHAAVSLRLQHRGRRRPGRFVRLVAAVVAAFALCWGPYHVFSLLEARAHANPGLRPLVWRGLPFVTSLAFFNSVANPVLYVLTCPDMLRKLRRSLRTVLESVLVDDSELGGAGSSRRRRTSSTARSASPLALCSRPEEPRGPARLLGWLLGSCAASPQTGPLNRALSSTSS
The assay can be described thus: Human CRTH2 Receptor Binding Assay (whole cell, [3H]ramatroban competition). The following applies: CHO-K1 cells stably expressing human CRTH2 and G-alpha16; 20 nM [3H]ramatroban; 1 hour, room temperature. The text has this: A whole cell receptor binding assay using [^3H]ramatroban as the competing radioactive ligand was employed to evaluate the compound binding activity to human CRTH2. The radioactive ligand [^3H]ramatroban was synthesized according to Sugimoto et. al. (Eur. J. Pharmacol. 524, 30-37, 2005) to a specific activity of 42 Ci/mmol.
A cell line stably expressing human CRTH2 was established by transfecting CHO-K1 cells with two mammalian expression vectors that harbored human CRTH2 and G-alpha16 cDNAs, respectively, using FuGene® 6 transfection reagent (from Roche). Stable clones expressing CRTH2 were selected by staining each clone with BM16 (BD Pharmingen™ from BD Biosciences, a division of Becton, Dickinson and Company), which is a rat monoclonal antibody to human CRTH2. The cells were maintained as monolayer cultures in Ham's F-12 medium containing 10% fetal bovine serum, 100 units/mL penicillin, 100 μg/mL streptomycin, 2 mM glutamine, 0.5 mg/mL G418 (geneticin) for CRTH2, and 0.2 mg/mL hygromycin-B (for G-alpha 16). For whole cell receptor binding assay, the monolayer cells were rinsed once with PBS (phosphate buffered saline), dissociated using ethylenediaminetetraacetate (Versene™ EDTA from Lonza Inc.), and suspended in PBS containing 10 mM MgCl2 and 0.06% BSA (bovine serum albumin) at 1.5×10^6 cells/mL.
The binding reactions (0.2 mL) were performed in 96-well plates at room temperature in PBS containing 1.5×10^5 cells, 10 mM MgCl2, 0.06% BSA, 20 nM [^3H]ramatroban, and test compound at various concentrations. After 1 hour of binding reactions, the cells were harvested on GF™/B filter microplates (microtiter plates with embedded glass fiber from PerkinElmer, Inc.) and washed 5 times with PBS using a Filtermate™ Harvester (a cell harvester that harvests and washes cells from microplates from PerkinElmer, Inc.). The radioactivities bound to the cells were determined using a microplate scintillation counter (TopCount® NXT, from PerkinElmer, Inc.) after adding 50 μL of Microscint™ 20 scintillation fluid (from PerkinElmer, Inc.) to each well of the filter plates. The radioactivity from non-specific binding was determined by replacing compound with 10 μM of 15(R)-15-methyl PGD2 (from Cayman Chemical Company) in the reaction mixtures. The radioactivity bound to the cells in the absence of compound (total binding) was determined by replacing compound with 0.25% of DMSO (dimethyl sulfoxide) in the reaction mixture. Specific binding data were obtained by subtracting the radioactivity of non-specific binding from each binding data.
The IC50 value is defined as the concentration of the tested compound that is required for 50% inhibition of total specific binding. In order to calculate the IC50 value, the percent inhibition data were determined for 7 concentrations for each compound. The percent inhibition for a compound at each concentration was calculated according to the following formula, [1−(specific binding in the presence of compound)/(total specific binding)]×100. The IC50 value was then obtained by fitting the percent inhibition data to a sigmoidal dose-response (4 parameter logistic) model in the XLfit® software Excel add-in program [from ID Business Solutions Ltd., model 205, where F(x)=(A+(B−A)/(1+((C/x)^D)))].
Compound `CC1(c2cc(C(F)(F)F)cc(S(=O)(=O)N[C@@H]3CCCc4c3cnn4CC(=O)O)c2)CC1` [Example 11-1a, {(R)-4-[3-(1-Methyl-cyclopropyl)-5-trifluoromethyl-benzenesulfonylamino]-4,5,6,7-tetrahydro-indazol-1-yl}-acetic acid] had a pIC50 of 8.11. For `CC(C)c1cc(C(F)(F)F)cc(S(=O)(=O)N[C@@H]2CCCc3c2cnn3CC(=O)O)c1` [Example 12-1a, (R)-[4-(3-Isopropyl-5-trifluoromethyl-benzenesulfonylamino)-4,5,6,7-tetrahydro-indazol-1-yl]-acetic acid], the pIC50 is 7.66. In the case of `CC(C)c1cc(C(F)(F)F)cc(S(=O)(=O)N(C)[C@@H]2CCCc3c2cnn3CC(=O)O)c1` [Example 13-1a, {(R)-4-[(3-isopropyl-5-trifluoromethyl-benzenesulfonyl)-methyl-amino]-4,5,6,7-tetrahydro-indazol-1-yl}-acetic acid], the negative logarithm of the IC50 (pIC50) was 8.14. Compound `CN([C@@H]1CCCc2c1cnn2CC(=O)O)S(=O)(=O)c1cc(C(F)(F)F)cc(C2(C)CC2)c1` [Example 14-1a, ((R)-4-{Methyl-[3-(1-methyl-cyclopropyl)-5-trifluoromethyl-benzenesulfonyl]-amino}-4,5,6,7-tetrahydro-indazol-1-yl)-acetic acid] had a negative-log IC50 (pIC50) of 8.21. In the case of `CCC1(c2cc(C(F)(F)F)cc(S(=O)(=O)N(C)[C@@H]3CCCc4c3cnn4CC(=O)O)c2)CC1` [Example 15-1a, ((R)-4-{[3-(1-Ethyl-cyclopropyl)-5-trifluoromethyl-benzenesulfonyl]-methyl-amino}-4,5,6,7-tetrahydro-indazol-1-yl)-acetic acid] it was 7.91; in that of `C#Cc1cc(C(F)(F)F)cc(S(=O)(=O)NC2CCCc3c2cnn3CC(=O)O)c1` (stereo not drawn) [Example 16-1a, [4-(3-Ethynyl-5-trifluoromethyl-benzenesulfonylamino)-4,5,6,7-tetrahydro-indazol-1-yl]-acetic acid], 7.16.

As for `CN([C@@H]1CCCc2c1cnn2CC(=O)O)S(=O)(=O)c1cc(C(F)(F)F)cc([Si](C)(C)C)c1` [Example 17-1a, {(R)-4-[Methyl-(3-trifluoromethyl-5-trimethylsilanyl-benzenesulfonyl)-amino]-4,5,6,7-tetrahydro-indazol-1-yl}-acetic acid], the pIC50 was 7.25.

Turning to `CN([C@@H]1CCCc2c1cnn2CC(=O)O)S(=O)(=O)c1cc(C2CCCC2)cc(C(F)(F)F)c1` [Example 18-1a, {(R)-4-[(3-Cyclopentyl-5-trifluoromethyl-benzenesulfonyl)-methyl-amino]-4,5,6,7-tetrahydro-indazol-1-yl}-acetic acid], the negative logarithm of the IC50 (pIC50) is 7.54. In turn, `CC(=O)c1cc(C(F)(F)F)cc(S(=O)(=O)N(C)[C@@H]2CCCc3c2cnn3CC(=O)O)c1` [Example 19-1a, {(R)-4-[(3-Acetyl-5-trifluoromethyl-benzenesulfonyl)-methyl-amino]-4,5,6,7-tetrahydro-indazol-1-yl}-acetic acid] gave a negative-log IC50 (pIC50) of 8.15. Compared with the last compound, the pIC50 is 0.61 log units higher. The compound `CN([C@@H]1CCCc2c1cnn2CC(=O)O)S(=O)(=O)c1cc(C(C)(F)F)cc(C(F)(F)F)c1` [Example 20-1a, ((R)-4-{[3-(1,1-Difluoro-ethyl)-5-trifluoromethyl-benzenesulfonyl]-methyl-amino}-4,5,6,7-tetrahydro-indazol-1-yl)-acetic acid] gave a pIC50 of 8.46. In the case of `CN([C@@H]1CCCc2c1cnn2C(C)(C)C(=O)O)S(=O)(=O)c1cc(C(F)(F)F)cc(C(F)(F)F)c1` [Example 21-1a, 2-{(R)-4-[(3,5-Bis-trifluoromethyl-benzenesulfonyl)-methyl-amino]-4,5,6,7-tetrahydro-indazol-1-yl}-2-methyl-propionic acid] it was 6.56. For the compound `CC(=O)Nc1cccc(S(=O)(=O)NC2CCCc3c2cnn3CC(=O)O)c1` (stereo not drawn) [Example 22-1a, [4-(3-Acetylamino-benzenesulfonylamino)-4,5,6,7-tetrahydro-indazol-1-yl]-acetic acid], the pIC50 is 7.10. As to `CS(=O)(=O)Nc1cccc(S(=O)(=O)NC2CCCc3c2cnn3CC(=O)O)c1` (stereo not drawn) [Example 23-1a, [4-(3-Methanesulfonylamino-benzenesulfonylamino)-4,5,6,7-tetrahydro-indazol-1-yl]-acetic acid], the pIC50 was 7.40.

Compound `CN([C@@H]1CCCc2c1cnn2CC(=O)O)S(=O)(=O)c1cc(N2CCCC2)cc(C(F)(F)F)c1` [Example 24-1a, {(R)-4-[Methyl-(3-pyrrolidin-1-yl-5-trifluoromethyl-benzenesulfonyl)-amino]-4,5,6,7-tetrahydro-indazol-1-yl}-acetic acid] had a pIC50 of 7.42. The pIC50 values of the last two compounds are within 0.2 log units of each other. On to `CC(C)N(C)c1cc(C(F)(F)F)cc(S(=O)(=O)N(C)[C@@H]2CCCc3c2cnn3CC(=O)O)c1` [Example 24-2a, ((R)-4-{[3-(Isopropyl-methyl-amino)-5-trifluoromethyl-benzenesulfonyl]-methyl-amino}-4,5,6,7-tetrahydro-indazol-1-yl)-acetic acid], for which the pIC50 was 7.34.

As to `CN(C)c1cc(C(F)(F)F)cc(S(=O)(=O)N(C)[C@@H]2CCCc3c2cnn3CC(=O)O)c1` [Example 24-3a, {(R)-4-[(3-Dimethylamino-5-trifluoromethyl-benzenesulfonyl)-methyl-amino]-4,5,6,7-tetrahydro-indazol-1-yl}-acetic acid], the pIC50 was 7.21. This pIC50 and that of the compound before are within 0.2 log units of each other. Turning to `CCN(CC)c1cc(C(F)(F)F)cc(S(=O)(=O)N(C)[C@@H]2CCCc3c2cnn3CC(=O)O)c1` [Example 24-4a, {(R)-4-[(3-Diethylamino-5-trifluoromethyl-benzenesulfonyl)-methyl-amino]-4,5,6,7-tetrahydro-indazol-1-yl}-acetic acid], the pIC50 was 6.84. Against the preceding compound, the pIC50 is 0.37 log units lower. Then `O=C(O)Cn1ncc2c1CCCC2NS(=O)(=O)c1cc(C2CC2)cc(C(F)(F)F)c1` (stereo not drawn) [Example 25-1a, [4-(3-Cyclopropyl-5-trifluoromethyl-benzenesulfonylamino)-4,5,6,7-tetrahydro-indazol-1-yl]-acetic acid], with 7.66. For `Cc1cc(C(F)(F)F)cc(S(=O)(=O)NC2CCCc3c2cnn3CC(=O)O)c1` (stereo not drawn) [Example 25-2a, [4-(3-Methyl-5-trifluoromethyl-benzenesulfonylamino)-4,5,6,7-tetrahydro-indazol-1-yl]-acetic acid], the pIC50 was 6.85. Against the preceding compound, the pIC50 is 0.81 log units lower. In the case of `C=C(C)c1cc(C(F)(F)F)cc(S(=O)(=O)NC2CCCc3c2cnn3CC(=O)O)c1` (stereo not drawn) [Example 25-3a, [4-(3-Isopropenyl-5-trifluoromethyl-benzenesulfonylamino)-4,5,6,7-tetrahydro-indazol-1-yl]-acetic acid], the negative logarithm of the IC50 (pIC50) was 7.39. This pIC50 lies 0.54 log units higher than the previous one.

For the compound `CN([C@@H]1CCCc2c1cnn2CC(=O)O)S(=O)(=O)c1cc(C2CC2)cc(C(F)(F)F)c1` [Example 26-1a, {(R)-4-[(3-Cyclopropyl-5-trifluoromethyl-benzenesulfonyl)-methyl-amino]-4,5,6,7-tetrahydro-indazol-1-yl}-acetic acid], the negative logarithm of the IC50 (pIC50) was 7.79.
